± gives the expanded uncertainty stated by the source.
Experiment: xn = mol fraction of the nth substance listed
Conditions: 298.15 K, Ring tensiometer

Structure (SMILES) | surface tension liquid-gas (x1 = 0.1) | surface tension liquid-gas (x1 = 0.2) | surface tension liquid-gas (x1 = 0.3) | surface tension liquid-gas (x1 = 0.4) | surface tension liquid-gas (x1 = 0.5) | surface tension liquid-gas (x1 = 0.6) | surface tension liquid-gas (x1 = 0.7) | surface tension liquid-gas (x1 = 0.8) | surface tension liquid-gas (x1 = 0.9) | surface tension liquid-gas (x1 = 1) | surface tension liquid-gas (x1 = 0.02) | surface tension liquid-gas (x1 = 0.04) | surface tension liquid-gas (x1 = 0.08) | surface tension liquid-gas (x1 = 0.12) | surface tension liquid-gas (x1 = 0.14)
CCOP(=O)([O-])OCC.CCn1cc[n+](CC)c1 [1,3-diethyl-1H-imidazol-3-ium diethyl phosphate] + CCO | 22.6 ± 0.3 mN/m | 23.4 ± 0.4 mN/m | 24.6 ± 0.4 mN/m | 26.3 ± 0.4 mN/m | 27.8 ± 0.4 mN/m | 29.6 ± 0.4 mN/m | 31.1 ± 0.4 mN/m | 32.5 ± 0.5 mN/m | 34.1 ± 0.5 mN/m | 35.5 ± 0.5 mN/m | – | – | – | – | –
CCOP(=O)([O-])OCC.CCn1cc[n+](CC)c1 [1,3-diethyl-1H-imidazol-3-ium diethyl phosphate] + CO | 26.4 ± 0.4 mN/m | 28.6 ± 0.4 mN/m | 30.3 ± 0.4 mN/m | 31.6 ± 0.5 mN/m | 33 ± 0.5 mN/m | 34 ± 0.5 mN/m | 34.4 ± 0.5 mN/m | 36.1 ± 0.5 mN/m | 35.9 ± 0.5 mN/m | 35.5 ± 0.5 mN/m | – | – | – | – | –
CCOP(=O)([O-])OCC.CCn1cc[n+](CC)c1 [1,3-diethyl-1H-imidazol-3-ium diethyl phosphate] + O | 40.7 ± 0.7 mN/m | 37.4 ± 0.5 mN/m | 37.2 ± 0.5 mN/m | 36.6 ± 0.5 mN/m | 36.4 ± 0.5 mN/m | 36.2 ± 0.5 mN/m | 36 ± 0.5 mN/m | 36.1 ± 0.5 mN/m | 35.9 ± 0.5 mN/m | 35.5 ± 0.5 mN/m | – | – | – | – | –
COP(=O)([O-])OC.Cn1cc[n+](C)c1 [1,3-dimethylimidazolium dimethylphosphate] + CCO | 23.2 ± 0.4 mN/m | 24.5 ± 0.4 mN/m | 26.1 ± 0.4 mN/m | 28.2 ± 0.4 mN/m | 30.5 ± 0.4 mN/m | 32.7 ± 0.5 mN/m | 35 ± 0.5 mN/m | 37.5 ± 0.5 mN/m | 41.4 ± 0.6 mN/m | 48.4 ± 0.6 mN/m | – | – | – | – | –
COP(=O)([O-])OC.Cn1cc[n+](C)c1 [1,3-dimethylimidazolium dimethylphosphate] + CO | 26.9 ± 0.4 mN/m | 30.4 ± 0.4 mN/m | 33.1 ± 0.5 mN/m | 35.7 ± 0.5 mN/m | 38.1 ± 0.5 mN/m | 40 ± 0.5 mN/m | 41.6 ± 0.6 mN/m | 43.6 ± 0.6 mN/m | 46.2 ± 0.6 mN/m | 48.4 ± 0.6 mN/m | – | – | – | – | –
COP(=O)([O-])OC.Cn1cc[n+](C)c1 [1,3-dimethylimidazolium dimethylphosphate] + O | 55.7 ± 0.8 mN/m | 51.8 ± 0.7 mN/m | 50.6 ± 0.7 mN/m | 50 ± 0.7 mN/m | 49.8 ± 0.7 mN/m | 49.3 ± 0.7 mN/m | 49.1 ± 0.7 mN/m | 48.9 ± 0.7 mN/m | 48.6 ± 0.6 mN/m | 48.4 ± 0.6 mN/m | 67 ± 0.9 mN/m | 64.2 ± 0.9 mN/m | 59.5 ± 0.8 mN/m | 53.6 ± 0.7 mN/m | 52.2 ± 0.7 mN/m
CCCCn1cc[n+](CC)c1.CCOP(=O)([O-])OCC [1-butyl-3-ethyl-1H-imidazol-3-ium diethyl phosphate] + CCO | 22.6 ± 0.3 mN/m | 23.6 ± 0.4 mN/m | 24.7 ± 0.4 mN/m | 26.1 ± 0.4 mN/m | 27.6 ± 0.4 mN/m | 28.5 ± 0.4 mN/m | 29.5 ± 0.4 mN/m | 30.5 ± 0.4 mN/m | 31.4 ± 0.4 mN/m | 32.2 ± 0.5 mN/m | – | – | – | – | –
CCCCn1cc[n+](CC)c1.CCOP(=O)([O-])OCC [1-butyl-3-ethyl-1H-imidazol-3-ium diethyl phosphate] + CO | 26.1 ± 0.4 mN/m | 28.4 ± 0.4 mN/m | 29.8 ± 0.4 mN/m | 30.6 ± 0.4 mN/m | 30.9 ± 0.4 mN/m | 31.1 ± 0.4 mN/m | 31.4 ± 0.4 mN/m | 32.3 ± 0.5 mN/m | 32.2 ± 0.5 mN/m | 32.2 ± 0.5 mN/m | – | – | – | – | –
CCCCn1cc[n+](CC)c1.CCOP(=O)([O-])OCC [1-butyl-3-ethyl-1H-imidazol-3-ium diethyl phosphate] + O | 35.9 ± 0.5 mN/m | 33.1 ± 0.5 mN/m | 32.9 ± 0.5 mN/m | 32.8 ± 0.5 mN/m | 32.6 ± 0.5 mN/m | 32.5 ± 0.5 mN/m | 32.3 ± 0.5 mN/m | 32.3 ± 0.5 mN/m | 32.2 ± 0.5 mN/m | 32.2 ± 0.5 mN/m | 47.4 ± 1.6 mN/m | 42.4 ± 0.6 mN/m | 37.8 ± 0.6 mN/m | 35.5 ± 0.5 mN/m | 35 ± 0.5 mN/m
CCCCn1cc[n+](C)c1.COP(=O)([O-])OC [1-butyl-3-methyl-1H-imidazolium dimethylphosphate] + CCO | 22.8 ± 0.3 mN/m | 23.6 ± 0.4 mN/m | 25 ± 0.4 mN/m | 26.9 ± 0.4 mN/m | 28.5 ± 0.4 mN/m | 30.5 ± 0.4 mN/m | 32.3 ± 0.5 mN/m | 34 ± 0.5 mN/m | 36 ± 0.5 mN/m | 38 ± 0.5 mN/m | – | – | – | – | –
CCCCn1cc[n+](C)c1.COP(=O)([O-])OC [1-butyl-3-methyl-1H-imidazolium dimethylphosphate] + CO | 26.5 ± 0.4 mN/m | 29.2 ± 0.4 mN/m | 30.8 ± 0.4 mN/m | 32.3 ± 0.5 mN/m | 33.8 ± 0.5 mN/m | 35.1 ± 0.5 mN/m | 35.9 ± 0.5 mN/m | 38 ± 0.5 mN/m | 38.1 ± 0.5 mN/m | 38 ± 0.5 mN/m | – | – | – | – | –
CCCCn1cc[n+](C)c1.COP(=O)([O-])OC [1-butyl-3-methyl-1H-imidazolium dimethylphosphate] + O | 42.1 ± 0.6 mN/m | 40.9 ± 0.6 mN/m | 40.2 ± 0.5 mN/m | 39.4 ± 0.5 mN/m | 38.8 ± 0.5 mN/m | 38.3 ± 0.5 mN/m | 38.2 ± 0.5 mN/m | 38 ± 0.5 mN/m | 38.1 ± 0.5 mN/m | 38 ± 0.5 mN/m | – | – | – | – | –
CCCCOP(=O)([O-])OCCCC.CCCCn1cc[n+](C)c1 [1-butyl-3-methylimidazolium dibutyl phosphate] + CCO | 22.5 ± 0.3 mN/m | 23.5 ± 0.4 mN/m | 24.5 ± 0.4 mN/m | 25.9 ± 0.4 mN/m | 26.6 ± 0.4 mN/m | 27.3 ± 0.4 mN/m | 27.8 ± 0.4 mN/m | 28.3 ± 0.4 mN/m | 28.8 ± 0.4 mN/m | 29.4 ± 0.4 mN/m | – | – | – | – | –
CCCCOP(=O)([O-])OCCCC.CCCCn1cc[n+](C)c1 [1-butyl-3-methylimidazolium dibutyl phosphate] + CO | 26.4 ± 0.4 mN/m | 27.5 ± 0.4 mN/m | 28.1 ± 0.4 mN/m | 28.5 ± 0.4 mN/m | 28.8 ± 0.4 mN/m | 28.9 ± 0.4 mN/m | 29.1 ± 0.4 mN/m | 29.4 ± 0.4 mN/m | 29.5 ± 0.4 mN/m | 29.4 ± 0.4 mN/m | – | – | – | – | –
CCCCOP(=O)([O-])OCCCC.CCCCn1cc[n+](C)c1 [1-butyl-3-methylimidazolium dibutyl phosphate] + O | 28.2 ± 0.6 mN/m | 28.9 ± 0.4 mN/m | 29 ± 0.4 mN/m | 29.1 ± 0.4 mN/m | 29.2 ± 0.4 mN/m | 29.3 ± 0.4 mN/m | 29.3 ± 0.4 mN/m | 29.4 ± 0.4 mN/m | 29.5 ± 0.4 mN/m | 29.4 ± 0.4 mN/m | – | – | – | – | –

— the NIST ThermoML archive (doi:10.1021/je400004j)
